The target of one data set is T1, RIG-I (Homo sapiens, UniProt O95786).
T1 sequence (O95786 1-925): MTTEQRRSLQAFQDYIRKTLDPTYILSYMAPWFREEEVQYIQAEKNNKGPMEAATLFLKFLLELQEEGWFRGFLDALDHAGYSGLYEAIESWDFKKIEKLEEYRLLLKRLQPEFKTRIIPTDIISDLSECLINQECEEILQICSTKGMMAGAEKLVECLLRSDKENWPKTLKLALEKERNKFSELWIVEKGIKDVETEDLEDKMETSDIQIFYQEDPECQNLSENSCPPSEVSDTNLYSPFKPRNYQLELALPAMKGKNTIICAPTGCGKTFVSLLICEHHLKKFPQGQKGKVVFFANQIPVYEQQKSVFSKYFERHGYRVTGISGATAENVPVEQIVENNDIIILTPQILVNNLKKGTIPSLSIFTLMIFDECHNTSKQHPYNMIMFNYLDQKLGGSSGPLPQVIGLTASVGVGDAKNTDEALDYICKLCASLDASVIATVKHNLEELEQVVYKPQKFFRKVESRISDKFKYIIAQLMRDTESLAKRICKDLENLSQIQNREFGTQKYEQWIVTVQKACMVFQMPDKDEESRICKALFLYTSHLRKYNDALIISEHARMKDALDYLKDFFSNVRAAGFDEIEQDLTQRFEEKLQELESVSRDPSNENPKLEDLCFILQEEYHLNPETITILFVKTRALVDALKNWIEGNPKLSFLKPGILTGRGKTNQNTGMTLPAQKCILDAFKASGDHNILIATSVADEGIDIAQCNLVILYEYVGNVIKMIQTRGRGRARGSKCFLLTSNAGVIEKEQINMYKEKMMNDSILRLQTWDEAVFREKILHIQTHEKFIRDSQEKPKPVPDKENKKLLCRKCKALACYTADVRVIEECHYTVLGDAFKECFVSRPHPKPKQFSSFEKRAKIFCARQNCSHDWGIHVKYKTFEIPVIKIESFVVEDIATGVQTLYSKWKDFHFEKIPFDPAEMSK
Kind of data set: Absorbance titration of compound with RIG-I protein. Format: binding. Also noted: The native, full-length protein was expressed and purified using methods adapted from published protocols; SUMO (pET-SUMO vector; captured on Ni-NTA) (N, cleaved yes); made in house; host or cells: Rosetta II(DE3) Escherichia coli. How it is done:
FIG. 1A illustrates the structure of RIG-I ΔCARDs bound to a 14 base pair RNA duplex with ADP▪BeF3 (PDBID:5E3H). FIG. 1B illustrates representative IC50 curves for active compounds. Relative activity of a compound was calculated as a fraction of “no inhibitor” measurement and plotted vs. inhibitor concentration. Each data point represents a mean of n=3 determinations±the standard deviation. FIG. 1C illustrates a representative absorption titration spectra of RIG012 binding to RIG-I. Protein concentrations are indicated in figure legend. (Inset) Stoichiometry of RIG-I binding. Fraction bound (A) is plotted against fractional change in RIG-I concentration (ΔRIG-I). Slope=0.95±0.06. […]
Although IC50 values provide a valuable metric of association for enzyme inhibitors, it was of interest to determine directly whether the lead compound, RIG012, binds to the RIG-I protein. Binding studies were facilitated by the fact that RIG012 contains a strong chromophore that absorbs in the visible range (λmax of 470 nm), making it possible to conduct classical absorbance titrations of the compound with increasing amounts of RIG-I. Upon binding to RIG-I, the 470 nm absorbance band of RIG012 undergoes a dramatic hyperchromic shift to higher intensity values, and the magnitude of this shift is proportional to the relative fraction of bound small molecule (FIG. 1C). […]

The next data set concerns A549 cells. Kind of data set: qRT-PCR of metabolism and stress marker genes (ACTB, GAPDH, p21, BAX) in A549 cells. Format: cell-based, human. The settings on record: p21, BAX by qRT-PCR. How it is done: In the second assay, inhibition of RIG-I that is endogenously expressed in A549 cells was evaluated by monitoring IFN and ISG levels by qRT-PCR. A549 cells were propagated in T75 flasks containing Dulbecco's Modified Eagle Medium, DMEM, (Life Technologies) supplemented with 10% heat-inactivated fetal bovine serum (Hyclone) and Non-Essential Amino Acids (Life Technologies). For the assay, 0.5 ml of cells at 100,000 cells/ml was seeded in 24-well plates. After 24 h, DMEM growth media was replaced with media containing drug, as described above for the IFN induction assay using HEK293T cells. After 30 minutes, the cells were transfected with 1 μg of the synthetic stem-loop RNA (SLR14), using the Lipofectamine 2000 transfection reagent. After 5-6 hours, cells were harvested and total RNA was isolated using E.Z.N.A total RNA isolation kit (Omega Bio-tek), following the manufacturer's instructions. […] Each sample was analyzed in triplicate and normalized to HPRT expression. Gene expression quantification was performed according to the Livak ΔΔCt method.
These experiments were consistent with a target-specific response to the compounds. […] To evaluate interference with cell growth or viability, genes that represent markers of cell metabolism and stress response (ACTB, GAPDH, p21, BAX) were also simultaneously monitored. […]

Turning to `CCC1(CC)C(=O)N=C2C1=C(OCc1ccccc1)C(=O)c1ccccc12` [RIG012, 4-Benzyloxy-3,3-diethyl-2H,3H,5H-benzo[g]indole-2,5-dione], the “slope of fraction bound vs fractional change in RIG-I concentration (stoichiometry of RIG-I binding)” value on RIG-I (absorbance titration at 470 nm, two independent experiments ± SD) is reported as 0.95±0.06. Moreover, the “stoichiometry of compound:RIG-I complex” value at RIG-I (absorbance titration, stoichiometric binding regime) was 1:1 complex. The “expression of genes involved in cell viability and metabolism” value in the data set on A549 cells was “unaffected”.
